According to patent publication US9556165B2 (priority 2012, dated 2017):
≈ marks a conversion by molar mass, not a printed value.

Legend:
Type in all cases: cell-based
[1] = tested on: E. coli ATCC25922; test: MIC determination, broth microdilution (CLSI); conditions: for MIC: Escherichia coli, ATCC25922, strain 1
[2] = tested on: K. pneumoniae 60; test: MIC determination, broth microdilution (CLSI); conditions: for MIC: Klebsiella pneumoniae, 60, strain 2
[3] = tested on: E. cloacae 34654; test: MIC determination, broth microdilution (CLSI); conditions: for MIC: Enterobacter cloacae, 34654, strain 3
[4] = tested on: C. freundii K21/3034; test: MIC determination, broth microdilution (CLSI); conditions: for MIC: Citrobacter freundii, K21/3034, strain 4
[5] = tested on: M. morganii 126/3048; test: MIC determination, broth microdilution (CLSI); conditions: for MIC: Morganella morganii, 126/3048, strain 5
[6] = tested on: P. aeruginosa PAO1; test: MIC determination, broth microdilution (CLSI); conditions: for MIC: Pseudomonas aeruginosa, PAO1, strain 6
[7] = tested on: P. aeruginosa 2297 (AmpC wt); test: MIC determination, broth microdilution (CLSI); conditions: Pseudomonas aeruginosa, strain 7
[8] = tested on: P. aeruginosa 2297-con (AmpC derepressed); test: MIC determination, broth microdilution (CLSI); conditions: for MIC: Pseudomonas aeruginosa, read-out: strain 8 MIC, strain 8
[9] = tested on: A. baumannii ATCC15308; test: MIC determination, broth microdilution (CLSI); conditions: for MIC: Acinetobacter baumannii, ATCC15308, strain 9
[10] = tested on: S. maltophilia ICB7569; test: MIC determination, broth microdilution (CLSI); conditions: for MIC: Stenotrophomonas maltophilia, ICB7569, strain 10
[11] = tested on: S. aureus 133; test: MIC determination, broth microdilution (CLSI); conditions: Staphylococcus aureus, 133, strain 11; read-out: strain 11 MIC
[12] = tested on: M. catarrhalis ICB489; test: MIC determination, broth microdilution (CLSI); conditions: for MIC: Moraxella catarrhalis, ICB489, strain 12
[13] = tested on: H. influenzae ATCC 49247; test: MIC determination, broth microdilution (CLSI); conditions: for MIC: Haemophilus influenzae, ATCC49247, strain 13, read-out: strain 13 MIC
[14] = tested on: B. fragilis 6688; test: MIC determination, broth microdilution (CLSI); conditions: for MIC: Bacteroides fragilis, 6688, strain 15, read-out: strain 15 MIC
[15] = tested on: C. perfringens DSM756; test: microbe, parasite or virus in culture; conditions: for MIC: Clostridium perfringens, DSM756, read-out: strain 16 MIC, strain 16
[16] = tested on: E. coli J62; test: MIC determination, broth microdilution (CLSI); conditions: for MIC: Escherichia coli, J62, strain 17, read-out: strain 17 MIC
[17] = tested on: E. coli J62-TEM-3; test: MIC determination, broth microdilution (CLSI); conditions: for MIC: Escherichia coli, J62TEM3, read-out: strain 18 MIC, strain 18
[18] = tested on: strain 19; test: MIC determination, broth microdilution (CLSI)
[19] = tested on: strain 20; test: MIC determination, broth microdilution (CLSI)
[20] = tested on: strain 21; test: MIC determination, broth microdilution (CLSI)
[21] = tested on: S. pneumoniae 113; test: MIC determination, broth microdilution (CLSI); conditions: Streptococcus pneumoniae, 113, strain 14; read-out: strain 14 MIC

SMILES | MIC [7] | MIC [11] | MIC [1] | MIC [2] | MIC [3] | MIC [4] | MIC [5] | MIC [6] | MIC [8] | MIC [9] | MIC [10] | MIC [12] | MIC [13] | MIC [14] | MIC [15] | MIC [16] | MIC [17] | MIC [18] | MIC [19] | MIC [20] | further results
CC1(C)[C@H](NC(=O)/C(=N\OC(COc2ccc(C(=N)N)nc2)C(=O)O)c2csc(N)n2)C(=O)N1OS(=O)(=O)O (mixture of isomers) [Example 36A, (2S and 2R)-2-({[(1Z)-1-(2-Amino-1,3-thiazol-4-yl)-2-{[(3S)-2,2-dimethyl-4-oxo-1-(sulfo-oxy)azetidin-3-yl]amino}-2-oxoethylidene]amino}oxy)-3-[(6-carbamimidoylpyridin-3-yl)oxy]propanoic acid] | 4 µg/mL | ≤ 0.063 µg/mL | – | – | – | – | – | – | – | – | – | – | – | – | – | – | – | – | – | – | strain 1 MIC ([1]; strain 1): 0.125 µg/mL; strain 2 MIC ([2]; strain 2): ≦0.063 mg/L; strain 3 MIC ([3]; strain 3): ≦0.063 mg/L; strain 4 MIC ([4]; strain 4): 0.125 µg/mL; strain 5 MIC ([5]; strain 5): ≦0.063 mg/L; strain 6 MIC ([6]; strain 6): 4 µg/mL; strain 8 MIC ([8]; strain 8): 4 µg/mL; strain 9 MIC ([9]; strain 9): 4 µg/mL; strain 10 MIC ([10]; strain 10): 2 µg/mL; strain 12 MIC ([12]; strain 12): ≦0.063 mg/L; strain 13 MIC ([13]; strain 13): 0.5 µg/mL; strain 15 MIC ([14]; strain 15): 8 µg/mL; strain 16 MIC ([15]; strain 16): 2 µg/mL; strain 17 MIC ([16]; strain 17): 0.125 µg/mL; strain 18 MIC ([17]; strain 18): 8 µg/mL; strain 19 MIC [18]: 0.125 µg/mL; strain 20 MIC [19]: ≦0.063 mg/L; strain 21 MIC [20]: 0.125 µg/mL
CC1(C)[C@H](NC(=O)/C(=N\OCCOc2ccc(C(=N)N)nc2)c2csc(N)n2)C(=O)N1OS(=O)(=O)O [Example 4, (2Z)-2-(2-Amino-1,3-thiazol-4-yl)-2-({2-[(6-carbamimidoylpyridin-3-yl)oxy]ethoxy}imino)-N-[(3)-2,2-dimethyl-4-oxo-1-(sulfooxy)azetidin-3-yl]ethanamide] | 16 µg/mL (≈ 29.5 µM) | ≤ 0.063 µg/mL | 0.125 µg/mL (≈ 0.23 µM) | 0.25 µg/mL (≈ 0.461 µM) | 0.5 µg/mL (≈ 0.922 µM) | 0.125 µg/mL (≈ 0.23 µM) | 0.25 µg/mL (≈ 0.461 µM) | 4 µg/mL (≈ 7.37 µM) | 8 µg/mL (≈ 14.7 µM) | 1 µg/mL (≈ 1.84 µM) | 4 µg/mL (≈ 7.37 µM) | ≤ 0.063 µg/mL | ≤ 0.063 µg/mL | 2 µg/mL (≈ 3.69 µM) | 2 µg/mL (≈ 3.69 µM) | 0.25 µg/mL (≈ 0.461 µM) | 8 µg/mL (≈ 14.7 µM) | 0.125 µg/mL (≈ 0.23 µM) | 0.25 µg/mL (≈ 0.461 µM) | 0.25 µg/mL (≈ 0.461 µM) | MIC [21]: 16 µg/mL (≈ 29.5 µM)
CC1(C)[C@H](NC(=O)/C(=N\OCCSc2ccc(C(=N)N)cc2)c2csc(N)n2)C(=O)N1OS(=O)(=O)O [Example 7, (2Z)-2-(2-Amino-1,3-thiazol-4-yl)-2-({2-[(4-carbamimidoylphenyl)sulfanyl]ethoxy}imino)-N-[(3S)-2,2-dimethyl-4-oxo-1-(sulfooxy)azetidin-3-yl]ethanamide] | 16 µg/mL (≈ 28.7 µM) | ≤ 0.063 µg/mL | 0.5 µg/mL (≈ 0.897 µM) | 1 µg/mL (≈ 1.79 µM) | 1 µg/mL (≈ 1.79 µM) | 0.5 µg/mL (≈ 0.897 µM) | 0.5 µg/mL (≈ 0.897 µM) | 8 µg/mL (≈ 14.3 µM) | 8 µg/mL (≈ 14.3 µM) | 2 µg/mL (≈ 3.59 µM) | 4 µg/mL (≈ 7.17 µM) | 0.25 µg/mL (≈ 0.448 µM) | ≤ 0.063 µg/mL | 1 µg/mL (≈ 1.79 µM) | 2 µg/mL (≈ 3.59 µM) | 1 µg/mL (≈ 1.79 µM) | 8 µg/mL (≈ 14.3 µM) | 0.5 µg/mL (≈ 0.897 µM) | 1 µg/mL (≈ 1.79 µM) | 1 µg/mL (≈ 1.79 µM) | MIC [21]: 2 µg/mL (≈ 3.59 µM)
CC1(C)[C@H](NC(=O)/C(=N\OCCOc2ccnc(C(=N)N)c2)c2csc(N)n2)C(=O)N1OS(=O)(=O)O [Example 15, (2Z)-2-(2-Amino-1,3-thiazol-4-yl)-2-({2-[(2-carbamimidoylpyridin-4-yl)oxy]ethoxy}imino)-N-[(3S)-2,2-dimethyl-4-oxo-1-(sulfooxy)azetidin-3-yl]ethanamide] | 8 µg/mL (≈ 14.7 µM) | ≤ 0.063 µg/mL | 0.5 µg/mL (≈ 0.922 µM) | 1 µg/mL (≈ 1.84 µM) | 1 µg/mL (≈ 1.84 µM) | 0.5 µg/mL (≈ 0.922 µM) | 0.5 µg/mL (≈ 0.922 µM) | 8 µg/mL (≈ 14.7 µM) | 8 µg/mL (≈ 14.7 µM) | 2 µg/mL (≈ 3.69 µM) | 4 µg/mL (≈ 7.37 µM) | ≤ 0.063 µg/mL | ≤ 0.063 µg/mL | 2 µg/mL (≈ 3.69 µM) | 0.5 µg/mL (≈ 0.922 µM) | 1 µg/mL (≈ 1.84 µM) | 8 µg/mL (≈ 14.7 µM) | 0.5 µg/mL (≈ 0.922 µM) | 0.5 µg/mL (≈ 0.922 µM) | 0.5 µg/mL (≈ 0.922 µM) | MIC [21]: 2 µg/mL (≈ 3.69 µM)
N=C(N)c1ccc(OCCO/N=C(\C(=O)NC2C(=O)N(OS(=O)(=O)O)C23CCCC3)c2csc(N)n2)cc1 (stereo not shown) [Example 16, (2Z)-2-(2-Amino-1,3-thiazol-4-yl)-2-{[2-(4-carbamimidoylphenoxy)ethoxy]imino}-N-[2-oxo-1-(sulfooxy)-1-azaspiro[3.4]oct-3-yl]ethanamide] | 32 µg/mL (≈ 56.4 µM) | ≤ 0.063 µg/mL | 1 µg/mL (≈ 1.76 µM) | 1 µg/mL (≈ 1.76 µM) | 1 µg/mL (≈ 1.76 µM) | 2 µg/mL (≈ 3.52 µM) | 0.5 µg/mL (≈ 0.881 µM) | 32 µg/mL (≈ 56.4 µM) | 32 µg/mL (≈ 56.4 µM) | 4 µg/mL (≈ 7.05 µM) | 8 µg/mL (≈ 14.1 µM) | 1 µg/mL (≈ 1.76 µM) | ≤ 0.063 µg/mL | 8 µg/mL (≈ 14.1 µM) | 4 µg/mL (≈ 7.05 µM) | 2 µg/mL (≈ 3.52 µM) | 4 µg/mL (≈ 7.05 µM) | 1 µg/mL (≈ 1.76 µM) | 1 µg/mL (≈ 1.76 µM) | 1 µg/mL (≈ 1.76 µM) | –
CC1(C)[C@H](NC(=O)/C(=N\OCCOc2cc(C(=N)N)ccn2)c2csc(N)n2)C(=O)N1OS(=O)(=O)O [Example 22, (2Z)-2-(2-Amino-1,3-thiazol-4-yl)-2-({2-[(4-carbamimidoylpyridin-2-yl)oxy]ethoxy}imino)-N-[(3S)-2,2-dimethyl-4-oxo-1-(sulfooxy)azetidin-3-yl]ethanamide] | 32 µg/mL (≈ 59 µM) | ≤ 0.063 µg/mL | 1 µg/mL (≈ 1.84 µM) | 1 µg/mL (≈ 1.84 µM) | 1 µg/mL (≈ 1.84 µM) | 0.5 µg/mL (≈ 0.922 µM) | 1 µg/mL (≈ 1.84 µM) | 16 µg/mL (≈ 29.5 µM) | 16 µg/mL (≈ 29.5 µM) | 4 µg/mL (≈ 7.37 µM) | 4 µg/mL (≈ 7.37 µM) | 0.125 µg/mL (≈ 0.23 µM) | ≤ 0.063 µg/mL | 4 µg/mL (≈ 7.37 µM) | 2 µg/mL (≈ 3.69 µM) | 1 µg/mL (≈ 1.84 µM) | 8 µg/mL (≈ 14.7 µM) | 0.5 µg/mL (≈ 0.922 µM) | 1 µg/mL (≈ 1.84 µM) | 1 µg/mL (≈ 1.84 µM) | MIC [21]: 2 µg/mL (≈ 3.69 µM)
CC1(C)[C@H](NC(=O)/C(=N\OCCOc2ccc(C(=N)NC3CCNCC3)cc2)c2csc(N)n2)C(=O)N1OS(=O)(=O)O [Example 23, (2Z)-2-(2-Amino-1,3-thiazol-4-yl)-N-[(3S)-2,2-dimethyl-4-oxo-1-(sulfooxy)azetidin-3-yl]-2-[(2-{4-[N-(piperidin-4-yl)carbamimidoyl]phenoxy}ethoxy)imino]ethanamide] | 2 µg/mL (≈ 3.2 µM) | ≤ 0.063 µg/mL | 0.125 µg/mL (≈ 0.2 µM) | 0.25 µg/mL (≈ 0.4 µM) | 0.5 µg/mL (≈ 0.8 µM) | 0.125 µg/mL (≈ 0.2 µM) | 0.5 µg/mL (≈ 0.8 µM) | 2 µg/mL (≈ 3.2 µM) | 2 µg/mL (≈ 3.2 µM) | 0.5 µg/mL (≈ 0.8 µM) | 16 µg/mL (≈ 25.6 µM) | ≤ 0.063 µg/mL | ≤ 0.063 µg/mL | 4 µg/mL (≈ 6.4 µM) | 2 µg/mL (≈ 3.2 µM) | 0.25 µg/mL (≈ 0.4 µM) | 1 µg/mL (≈ 1.6 µM) | 0.125 µg/mL (≈ 0.2 µM) | 0.125 µg/mL (≈ 0.2 µM) | 0.25 µg/mL (≈ 0.4 µM) | MIC [21]: 1 µg/mL (≈ 1.6 µM)
CC1(C)[C@H](NC(=O)/C(=N\OCCOc2ccc(C(=N)NCCN)cc2)c2csc(N)n2)C(=O)N1OS(=O)(=O)O [Example 24, (2Z)-2-[(2-{4-[N-(2-Aminoethyl)carbamimidoyl]phenoxy}ethoxy)imino]-2-(2-amino-1,3-thiazol-4-yl)-N-[(3S)-2,2-dimethyl-4-oxo-1-(sulfooxy)azetidin-3-yl]ethanamide] | 4 µg/mL (≈ 6.84 µM) | ≤ 0.063 µg/mL | 0.125 µg/mL (≈ 0.214 µM) | 0.25 µg/mL (≈ 0.428 µM) | 0.25 µg/mL (≈ 0.428 µM) | 0.125 µg/mL (≈ 0.214 µM) | 0.125 µg/mL (≈ 0.214 µM) | 2 µg/mL (≈ 3.42 µM) | 2 µg/mL (≈ 3.42 µM) | 1 µg/mL (≈ 1.71 µM) | 8 µg/mL (≈ 13.7 µM) | ≤ 0.063 µg/mL | ≤ 0.063 µg/mL | 2 µg/mL (≈ 3.42 µM) | 2 µg/mL (≈ 3.42 µM) | 0.125 µg/mL (≈ 0.214 µM) | 2 µg/mL (≈ 3.42 µM) | 0.125 µg/mL (≈ 0.214 µM) | 0.25 µg/mL (≈ 0.428 µM) | 0.5 µg/mL (≈ 0.855 µM) | MIC [21]: 2 µg/mL (≈ 3.42 µM)
